# Results reported in patent US20250129430A1, “HIGH ATP-AFFINITY PROTEIN AS THERAPEUTIC TARGET FOR INTRACTABLE CANCER MOLECULAR SUBTYPES AND INHIBITOR THEREOF” (VeraVerse Co., Ltd., priority 2021, published 2025).
# Key:
# Test in all cases: Cell viability drug screen, 12-point dose-response AUC
# Assay type in all cases: cell-based, human
# SNU638 = SNU638 cells, 72 hours
# Summary of the method: (§1)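 Dose-response AUC reflects 72 h drug exposure of gastric cancer cells in a 12-point, half-log format, with viability read by luminescence and normalized to DMSO (0.5%).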
# MKN74 = MKN74 cells, 72 hours
# Summary of the method: (§2)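 Viability: luminescence (Glo kit, 15 min RT), normalized to 0.5% DMSO vehicle. Dosing: half-log, 12 concentrations, 72 h. Cells: 5×10^3/well, treated 24 h after plating. Value: trapezoidal AUC, mean of repeats.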
# SNU668 = settings: 72 hours; for Average Area Under the Viability Curve (AUC), AUC norm value: SNU668 cells (SEM subtype)
# Summary of the method: as §1
# NCC19 = NCC19 cells, 72 hours
# Summary of the method: as §1
# NCC20 = NCC20 cells, 72 hours
# Summary of the method: as §1
# YCC11 = settings: 72 hours; for Average Area Under the Viability Curve (AUC), AUC norm value: YCC11 cells (SEM subtype)
# Summary of the method: as §1
# SNU719 = SNU719 cells, 72 hours
# Summary of the method: as §2
# MKN45 = settings: 72 hours; for Average Area Under the Viability Curve (AUC), AUC norm value: MKN45 cells (non-SEM subtype)
# Summary of the method: as §2
# SNU484 = settings: 72 hours; for Average Area Under the Viability Curve (AUC), AUC norm value: SNU484 cells (SEM subtype)
# Summary of the method: as §1
# YCC2 = YCC2 cells, 72 hours
# Summary of the method: as §1
# SNU1 = SNU1 cells, 72 hours
# Summary of the method: as §1
# KATO3 = KATO3 cells, 72 hours
# Summary of the method: as §1
# NCI_N87 = NCI_N87 cells, 72 hours
# Summary of the method: as §1
# SK4 = settings: 72 hours; for Average Area Under the Viability Curve (AUC), AUC norm value: SK4 cells (SEM subtype)
# Summary of the method: as §1
# YCC3 = YCC3 cells, 72 hours
# Summary of the method: as §1
# MKN1 = MKN1 cells, 72 hours
# Summary of the method: as §1
# SNU601 = SNU601 cells, 72 hours
# Summary of the method: as §1
# SNU216 = settings: 72 hours; for Average Area Under the Viability Curve (AUC), AUC norm value: SNU216 cells (non-SEM subtype)
# Summary of the method: as §2
# SNU620 = SNU620 cells, 72 hours
# Summary of the method: as §1
# NCC24 = NCC24 cells, 72 hours
# Summary of the method: as §1
# Hs746T = settings: 72 hours; for Average Area Under the Viability Curve (AUC), AUC norm value: Hs746T cells (SEM subtype)
# Summary of the method: as §1
# OCUM1 = OCUM1 cells, 72 hours
# Summary of the method: as §1
# AGS = settings: 72 hours; for Average Area Under the Viability Curve (AUC), AUC norm value: AGS cells (non-SEM subtype)
# Summary of the method: as §2
# MKN28 = MKN28 cells, 72 hours
# Summary of the method: as §1
# SNU1750 = settings: 72 hours; for Average Area Under the Viability Curve (AUC), AUC norm value: SNU1750 cells (SEM subtype)
# Summary of the method: as §1
# SNU1967 = SNU1967 cells, 72 hours
# Summary of the method: as §1
# NCC59 = NCC59 cells, 72 hours
# Summary of the method: as §1
# SNU16 = SNU16 cells, 72 hours
# Summary of the method: as §1
# FU97 = test system: FU97; parameters: Average Area Under the Viability Curve (AUC), AUC norm value: scale not given here; settings: FU97 cells, 72 hours
# Summary of the method: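 Trapezoidal AUC of a 12-point, DMSO-normalized dose-response curve. Luminescent viability was measured after 72 h of exposure at 37° C to half-log serial dilutions (0.5% DMSO control), dosed 24 h after plating FU97 cells at 5×10^3 per well.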
compound,measurement,setting,value
CC(C)[C@]12O[C@H]1[C@@H]1O[C@]13[C@]1(O[C@H]1C[C@H]1C4=C(CC[C@@]13C)C(=O)OC4)[C@@H]2O [Triptolide],"area under the viability curve (AUC), normalized",SNU638; 12-point dose-response,0.828
same,"area under the viability curve (AUC), normalized",MKN74; 12-point dose-response,−0.8231
same,"area under the viability curve (AUC), normalized","SNU668; SNU668 cells, 12-point dose-response",−1.284
same,"area under the viability curve (AUC), normalized",NCC19; 12-point dose-response,−1.507
same,"area under the viability curve (AUC), normalized",NCC20; 12-point dose-response,0
same,"area under the viability curve (AUC), normalized","YCC11; YCC11 cells, 12-point dose-response",0.4144
same,"area under the viability curve (AUC), normalized",SNU719; 12-point dose-response,4.573
same,"area under the viability curve (AUC), normalized","MKN45; MKN45 cells, 12-point dose-response",1.157
same,"area under the viability curve (AUC), normalized","SNU484; SNU484 cells, 12-point dose-response",−1.234
same,"area under the viability curve (AUC), normalized",YCC2; 12-point dose-response,0.6309
same,"area under the viability curve (AUC), normalized",SNU1; 12-point dose-response,−0.1207
same,"area under the viability curve (AUC), normalized",KATO3; 12-point dose-response,5.715
same,"area under the viability curve (AUC), normalized",NCI_N87; 12-point dose-response,−0.7868
same,"area under the viability curve (AUC), normalized","SK4; SK4 cells, 12-point dose-response",−1.232
same,"area under the viability curve (AUC), normalized",YCC3; 12-point dose-response,2.62
same,"area under the viability curve (AUC), normalized",MKN1; 12-point dose-response,0.6772
same,"area under the viability curve (AUC), normalized",SNU601; 12-point dose-response,0.3854
same,"area under the viability curve (AUC), normalized","SNU216; SNU216 cells, 12-point dose-response",1.18
same,"area under the viability curve (AUC), normalized",SNU620; 12-point dose-response,−0.986
same,"area under the viability curve (AUC), normalized",NCC24; 12-point dose-response,−1.656
same,"area under the viability curve (AUC), normalized","Hs746T; Hs746T cells, 12-point dose-response",0.17
same,"area under the viability curve (AUC), normalized",OCUM1; 12-point dose-response,1.992
same,"area under the viability curve (AUC), normalized","AGS; AGS cells, 12-point dose-response",−1.267
same,"area under the viability curve (AUC), normalized",MKN28; 12-point dose-response,−0.03132
same,"area under the viability curve (AUC), normalized","SNU1750; SNU1750 cells, 12-point dose-response",−0.4213
same,"area under the viability curve (AUC), normalized",SNU1967; 12-point dose-response,−0.4902
same,"area under the viability curve (AUC), normalized",NCC59; 12-point dose-response,0.356
same,"area under the viability curve (AUC), normalized",SNU16; 12-point dose-response,1.9544
same,"area under the viability curve (AUC), normalized",FU97; 12-point dose-response,−0.6238
CC[C@]1(O)C[C@@H]2CN(CCc3c([nH]c4ccccc34)[C@@](C(=O)OC)(c3cc4c(cc3OC)N(C)[C@H]3[C@@](O)(C(=O)OC)[C@H](OC(C)=O)[C@]5(CC)C=CCN6CC[C@]43[C@@H]65)C2)C1 [Vinblastine],"Average Area Under the Viability Curve (AUC), AUC norm value",SNU638,0.2652
same,"Average Area Under the Viability Curve (AUC), AUC norm value",MKN74,0.6639
same,"Average Area Under the Viability Curve (AUC), AUC norm value",SNU668,−1.037
same,"Average Area Under the Viability Curve (AUC), AUC norm value",NCC19,2.905
same,"Average Area Under the Viability Curve (AUC), AUC norm value",NCC20,−1.614
same,"Average Area Under the Viability Curve (AUC), AUC norm value",YCC11,−0.6159
same,"Average Area Under the Viability Curve (AUC), AUC norm value",SNU719,4.162
same,"Average Area Under the Viability Curve (AUC), AUC norm value",MKN45,1.844
same,"Average Area Under the Viability Curve (AUC), AUC norm value",SNU484,−1.194
same,"Average Area Under the Viability Curve (AUC), AUC norm value",YCC2,2.06
same,"Average Area Under the Viability Curve (AUC), AUC norm value",SNU1,−0.3949
same,"Average Area Under the Viability Curve (AUC), AUC norm value",KATO3,4.096
same,"Average Area Under the Viability Curve (AUC), AUC norm value",NCI_N87,−0.1721
same,"Average Area Under the Viability Curve (AUC), AUC norm value",SK4,−1.0813
same,"Average Area Under the Viability Curve (AUC), AUC norm value",YCC3,4.54
same,"Average Area Under the Viability Curve (AUC), AUC norm value",MKN1,−0.9285
same,"Average Area Under the Viability Curve (AUC), AUC norm value",SNU601,0
same,"Average Area Under the Viability Curve (AUC), AUC norm value",SNU216,2.539
same,"Average Area Under the Viability Curve (AUC), AUC norm value",SNU620,−0.4909
same,"Average Area Under the Viability Curve (AUC), AUC norm value",NCC24,−0.9438
same,"Average Area Under the Viability Curve (AUC), AUC norm value",Hs746T,1.1779
same,"Average Area Under the Viability Curve (AUC), AUC norm value",OCUM1,2.514
same,"Average Area Under the Viability Curve (AUC), AUC norm value",AGS,−1.129
same,"Average Area Under the Viability Curve (AUC), AUC norm value",MKN28,−0.818
same,"Average Area Under the Viability Curve (AUC), AUC norm value",SNU1750,0.6497
same,"Average Area Under the Viability Curve (AUC), AUC norm value",SNU1967,−0.9411
same,"Average Area Under the Viability Curve (AUC), AUC norm value",NCC59,2.833
same,"Average Area Under the Viability Curve (AUC), AUC norm value",SNU16,−1.3
same,"Average Area Under the Viability Curve (AUC), AUC norm value",FU97,0.3772
CC[C@]1(O)C[C@H]2CN(CCc3c([nH]c4ccccc34)[C@@](C(=O)OC)(c3cc4c(cc3OC)N(C=O)[C@H]3[C@@](O)(C(=O)OC)[C@H](OC(C)=O)[C@]5(CC)C=CCN6CC[C@]43[C@@H]65)C2)C1 [Vincristine],"Average Area Under the Viability Curve (AUC), AUC norm value",SNU638,0.1348
same,"Average Area Under the Viability Curve (AUC), AUC norm value",MKN74,0.209
same,"Average Area Under the Viability Curve (AUC), AUC norm value",SNU668,−1.315
same,"Average Area Under the Viability Curve (AUC), AUC norm value",NCC19,5.039
same,"Average Area Under the Viability Curve (AUC), AUC norm value",NCC20,−1.434
same,"Average Area Under the Viability Curve (AUC), AUC norm value",YCC11,−1.42
same,"Average Area Under the Viability Curve (AUC), AUC norm value",SNU719,5.036
same,"Average Area Under the Viability Curve (AUC), AUC norm value",MKN45,2.226
same,"Average Area Under the Viability Curve (AUC), AUC norm value",SNU484,−1.965
same,"Average Area Under the Viability Curve (AUC), AUC norm value",YCC2,2.298
same,"Average Area Under the Viability Curve (AUC), AUC norm value",SNU1,−0.5253
same,"Average Area Under the Viability Curve (AUC), AUC norm value",KATO3,4.8981
same,"Average Area Under the Viability Curve (AUC), AUC norm value",NCI_N87,1.615
same,"Average Area Under the Viability Curve (AUC), AUC norm value",SK4,−1.283
same,"Average Area Under the Viability Curve (AUC), AUC norm value",YCC3,4.6576
same,"Average Area Under the Viability Curve (AUC), AUC norm value",MKN1,−1.53
same,"Average Area Under the Viability Curve (AUC), AUC norm value",SNU601,0.9381
same,"Average Area Under the Viability Curve (AUC), AUC norm value",SNU216,1.755
same,"Average Area Under the Viability Curve (AUC), AUC norm value",SNU620,−0.3792
same,"Average Area Under the Viability Curve (AUC), AUC norm value",NCC24,−3.156
same,"Average Area Under the Viability Curve (AUC), AUC norm value",Hs746T,1.044
same,"Average Area Under the Viability Curve (AUC), AUC norm value",OCUM1,0.6548
same,"Average Area Under the Viability Curve (AUC), AUC norm value",AGS,−1.75
same,"Average Area Under the Viability Curve (AUC), AUC norm value",MKN28,−0.493
same,"Average Area Under the Viability Curve (AUC), AUC norm value",SNU1750,0
same,"Average Area Under the Viability Curve (AUC), AUC norm value",SNU1967,−1.3653
same,"Average Area Under the Viability Curve (AUC), AUC norm value",NCC59,3.847
same,"Average Area Under the Viability Curve (AUC), AUC norm value",SNU16,−1.522
same,"Average Area Under the Viability Curve (AUC), AUC norm value",FU97,−1.115
